Results published in patent US7125897B1, “Combined therapies for atherosclerosis treatment” (Vasogen Ireland Limited, priority 1999, dated 2006).

Key:
Assay type in all cases: in vivo, human
[1] = Posterior tibial/brachial and dorsalis/brachial pressure index in patient with peripheral arterial occlusive disease
Description: (§1) The stressed blood treatment used in the study involves the collection of 10 ml of a patient's venous blood into 2-ml of sodium citrate 3.13% as anticoagulant. The blood sample is transferred to a sterile, disposable low-density polyethylene vessel (model #V7002) for ex vivo treatment and is then exposed to the following three stimuli: • 1) An elevated temperature of 42.5° C.±1.0° C. at steady state controlled and monitored with a thermocouple; • 2) a gas mixture of medical oxygen containing 14.5±1.0 ug/ml of ozone, at a flow rate of 240±24 ml/min for 3 minutes; • 3) Ultra-violet light at a wavelength of 253.7 nm, and a total energy of 2.0 joules/cm^2.
(§2) The ex vivo treatment of the patient's blood sample is performed within a Blood Treatment Unit (model #V7001), generally described in U.S. Pat. No. 4,968,483 Mueller. The Unit regulates and monitors these physicochemical agents. The temperature of the blood is raised to 42.5° C., a process that takes up to 8 minutes depending upon the starting temperature of the blood sample. Before this temperature is reached the UV lights turn on, so that they reach maximum output by the time that the gas flow is initiated, which occurs when the temperature of the blood reaches 42.5° C. The total time of exposure to UV light is about 9 minutes. The gas mixture is bubbled through the blood sample at a flow rate of 240±24 ml/min for a period of 3 minutes while the temperature of the blood is maintained and UV irradiation continues. At the end of the treatment with the three stimuli (stressors), the blood is allowed to settle for 7 minutes. The device then signals that the treatment has been completed successfully. The entire process takes about 20 minutes.
(§3) In a separate investigation, a patient suffering from peripheral arterial occlusive disease (a consequence of atherosclerosis) and receiving a regular, normal daily dose of lovastatin received 10 treatments of autologous stressed blood prepared as described above (10 ml aliquots, administered intramuscularly) over a 14-week period. As a result, their posterior tibial/brachial pressure index increased from 0.69 to 0.85, a very significant change.

[2] = Claudication distance in patient with peripheral arterial occlusive disease; details: regular daily lovastatin plus 10 i.m. treatments of 10 ml autologous stressed blood over 14 weeks
Description: as §3

[3] = Ankle/brachial artery pressure ratio (ABPI) in patient with intermittent claudication; details: left leg; for ankle/brachial artery pressure ratio (ABPI): margin of error 0.1
Description: as §1, §2
A person with intermittent claudication (a cramping pain caused by arterial obstruction and indicative of the presence of a relatively advanced stage of atherosclerosis) in their left leg, was administered fluvastatin 20 mg. daily for hypercholesterolemia. Their initial ankle/brachial artery pressure ratio (ABPI) in the left leg was 0.60, normal values being greater than 0.9. […]

[4] = regular daily lovastatin plus 10 i.m. treatments of 10 ml autologous stressed blood over 14 weeks
[5] = regular daily lovastatin, before stressed blood treatments

For `CC[C@H](C)C(=O)O[C@H]1C[C@@H](C)C=C2C=C[C@H](C)[C@H](CC[C@@H]3C[C@@H](O)CC(=O)O3)[C@H]21` [lovastatin], the “dorsalis (foot artery)/brachial pressure index” value [1, 4] was 0.85, the “posterior tibial/brachial pressure index” value [1, 4] was 0.85 and the “dorsalis (foot artery)/brachial pressure index” value [1, 5] was 0.77. For the same molecule, the “posterior tibial/brachial pressure index” value [1, 5] was 0.69 and the “claudication distance (walking distance before experiencing cramping pain in the legs)” value [2] was “improved”.
For `CC(C)n1c(/C=C/C(O)CC(O)CC(=O)O)c(-c2ccc(F)cc2)c2ccccc21` (centres unmarked) [fluvastatin], the “ankle/brachial artery pressure ratio (ABPI)” value ([3]; fluvastatin 20 mg daily plus 9 i.m. treatments with 10 ml stressed autologous blood over 3 weeks) was 0.66, the “ankle/brachial artery pressure ratio (ABPI)” value ([3]; fluvastatin 20 mg daily plus stressed blood, 2 months after the end of treatment schedule) was 0.75 and the “initial ankle/brachial artery pressure ratio (ABPI)” value ([3]; fluvastatin 20 mg daily, before stressed blood treatments, normal values greater than 0.9) was 0.60.
